15 compounds from patent US20240246918A1, “COMPOUNDS AND COMPOSITIONS AS EIF4E INHIBITORS AND THE USES THEREOF” (Ribometrix, Inc., priority 2022, published 2024) can be followed below.

One experiment has as its system COLO 205 colorectal tumor cells. As to the kind of experiment: Tumor cell viability inhibition assay (CellTiter-Glo 2.0, 72 hours). It counts as cell-based. The conditions noted are these: Homo sapiens, COLO 205, 72 h, COLO 205 cell viability. The method, boiled down:
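COLO 205 cells (1500/well, RPMI-1640 + 10% FBS) exposed for 72 h to an 11-point, 4-fold dilution series; cellular ATP read by CellTiter-Glo 2.0 luminescence. Data normalized to DMSO and maximum-inhibition controls; IC50 from 4-parameter curve fit.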
`COC1CCN(C2CCc3nc(C)n(CCOc4ccc(Cl)cc4-c4cc(C)nc5c(C(=O)NCC(F)F)csc45)c(=O)c3C2)CC1` (stereo not drawn) [Compound 142] returned an IC50 of 5 to 20 µM.
On the same count and under the same terms, under `Cc1cc(-c2cc(Cl)ccc2OCCn2c(C)nc3c(c2=O)CC(N(C)Cc2ccccn2)CC3)c2scc(C(=O)O)c2n1` (stereo not drawn) [Compound 200] stands less than 5 µM; under `Cc1cc(-c2cc(Cl)ccc2OCCn2c(C)nc3c(c2=O)CC(N2CCC4(C2)CC(F)(F)C4)CC3)c2scc(C(=O)O)c2n1` (stereo not drawn) [Compound 194], less than 5 µM; under `Cc1cc(-c2cc(Cl)ccc2OCCn2c(C)nc3c(c2=O)CC(N2CCc4ncncc4C2)CC3)c2scc(C(=O)O)c2n1` (stereo not drawn) [Compound 157], 5 to 20 µM.
`Cc1cc(-c2cc(Cl)ccc2OCCn2c(C)nc3c(c2=O)CC(N2CC4(CCC(F)(F)CC4)C2)CC3)c2scc(C(=O)O)c2n1` (stereo not drawn) [Compound 161] yielded an IC50 of less than 5 µM.
Consider `Cc1cc(-c2cc(Cl)ccc2OCCn2c(C)nc3c(c2=O)CC(N(C)Cc2cnccn2)CC3)c2scc(C(=O)O)c2n1` (stereo not drawn) [Compound 199], for which the IC50 was less than 5 µM.
`Cc1cc(-c2cc(Cl)ccc2OCCn2c(C)nc3c(c2=O)C[C@H](N2C[C@H]4CCC(F)(F)[C@H]4C2)CC3)c2scc(C(=O)O)c2n1` (single isomer, unassigned) [Compound 166] had an IC50 of less than 5 µM.
Compound `COC1CCN(C2CCc3nc(C)n(CCOc4ccc(Cl)cc4-c4cc(C)nc5c(C(=O)NS(C)(=O)=O)csc45)c(=O)c3C2)CC1` (single isomer, unassigned) [Compound 239] yielded an IC50 of less than 5 µM.
Same read-out and setting: under `Cc1cc(-c2cc(Cl)ccc2OCCn2c(C)nc3c(c2=O)CC(N2CCc4sccc4C2)CC3)c2scc(C(=O)O)c2n1` (stereo not drawn) [Compound 181] stands less than 5 µM.
`COC1[C@@H]2CC[C@H]1CN(C1CCc3nc(C)n(CCOc4ccc(Cl)cc4-c4cc(C)nc5c(C(=O)O)csc45)c(=O)c3C1)C2` (stereo partly drawn) [Compound 152] gave a concentration for half-maximal inhibition (IC50) of less than 5 µM.
As for `Cc1cc(-c2cc(Cl)ccc2OCCn2c(C)nc3c(c2=O)CC(NCC2CC(F)(F)C2)CC3)c2scc(C(=O)O)c2n1` (stereo not drawn) [Compound 153], the IC50 was 5 to 20 µM.
Still for that read-out and setting: in the case of `Cc1cc(-c2cc(Cl)ccc2OCCn2c(C)nc3c(c2=O)CC(N(C)Cc2cccc(N)n2)CC3)c2scc(C(=O)O)c2n1` (stereo not drawn) [Compound 173] it was 5 to 20 µM.
As to `Cc1nc2c(c(=O)n1CC#Cc1ccc(Cl)cc1-c1ccnc3c(C(=O)NS(C)(=O)=O)csc13)C[C@H](N1CC[C@@H](F)C1)CC2` (single isomer, unassigned) [Compound 348], the IC50 is less than 5 µM.
`Cc1cc(-c2cc(Cl)ccc2OCCn2c(C)nc3c(c2=O)CC(N2CC(C(F)(F)F)C2)CC3)c2scc(C(=O)NS(C)(=O)=O)c2n1` (single isomer, unassigned) [Compound 321] showed an IC50 of less than 5 µM.
On the same count and under the same terms, under `Cc1cc(-c2cc(Cl)ccc2OCCn2c(C)nc3c(c2=O)CC(N2CC4COCC4C2)CC3)c2scc(C(=O)O)c2n1` (single isomer, unassigned) [Compound 67] stands less than 5 µM.

The subject of another experiment is cyclin D1 protein levels in COLO 205 cells. As to the kind of experiment: Cyclin D1 cellular inhibition assay (HTRF, 6 hours). It counts as cell-based. Conditions: Homo sapiens, COLO 205, 6 h, 6 hours of compound treatment, Cyclin D1 protein levels by HTRF, read-out: COLO 205 6 h Cyclin D1 TR-FRET IC50. The procedure: The effect of compound treatment on cyclin D1 protein levels in COLO 205 cells was assessed, as follows. Test compound plates were prepared with a Tecan D300e Digital Dispenser as 11-point concentration-response curves with a final DMSO concentration of 1%. COLO 205 (ATCC, CCL-222) colorectal tumor cells were seeded to assay-ready plates in RPMI-1640 medium supplemented with 10% FBS at 20,000 cells in a volume of 6 microliters per well. After 6 hours of compound treatment, cells were lysed and Cyclin D1 protein levels were assessed by an HTRF assay (PerkinElmer #64CYCD1ITPEG), according to the manufacturer's protocol. Time-resolved fluorescence was measured using a Clariostar Plus microplate reader (BMG Labtech) or equivalent. After normalization to the average of DMSO control and maximum inhibition control wells, concentration-response data were plotted and standard 4-parameter curve fitting (GraphPad Prism v9.4.1) was utilized to determine IC50 values.
On the technique in general: TR-FRET usually uses a lanthanide donor and a delayed reading to cut background.
For `COC1CCN(C2CCc3nc(C)n(CCOc4ccc(Cl)cc4-c4cc(C)nc5c(C(=O)NCC(F)F)csc45)c(=O)c3C2)CC1` (stereo not drawn) [Compound 142], the IC50 is more than 20 µM.
For `Cc1cc(-c2cc(Cl)ccc2OCCn2c(C)nc3c(c2=O)CC(N(C)Cc2ccccn2)CC3)c2scc(C(=O)O)c2n1` (stereo not drawn) [Compound 200], the IC50 is less than 5 µM.
As for `Cc1cc(-c2cc(Cl)ccc2OCCn2c(C)nc3c(c2=O)CC(N2CCC4(C2)CC(F)(F)C4)CC3)c2scc(C(=O)O)c2n1` (stereo not drawn) [Compound 194], the IC50 is less than 5 µM.
As for `Cc1cc(-c2cc(Cl)ccc2OCCn2c(C)nc3c(c2=O)CC(N2CCc4ncncc4C2)CC3)c2scc(C(=O)O)c2n1` (stereo not drawn) [Compound 157], the IC50 lay within 5 to 20 µM.
In the case of `Cc1cc(-c2cc(Cl)ccc2OCCn2c(C)nc3c(c2=O)CC(N2CC4(CCC(F)(F)CC4)C2)CC3)c2scc(C(=O)O)c2n1` (stereo not drawn) [Compound 161], the IC50 is less than 5 µM.
With `Cc1cc(-c2cc(Cl)ccc2OCCn2c(C)nc3c(c2=O)CC(N(C)Cc2cnccn2)CC3)c2scc(C(=O)O)c2n1` (stereo not drawn) [Compound 199], the concentration for half-maximal inhibition (IC50) is less than 5 µM.
With `Cc1cc(-c2cc(Cl)ccc2OCCn2c(C)nc3c(c2=O)C[C@H](N2C[C@H]4CCC(F)(F)[C@H]4C2)CC3)c2scc(C(=O)O)c2n1` (single isomer, unassigned) [Compound 166], the concentration for half-maximal inhibition (IC50) was less than 5 µM.
On the same count and under the same terms, in the case of `COC1CCN(C2CCc3nc(C)n(CCOc4ccc(Cl)cc4-c4cc(C)nc5c(C(=O)NS(C)(=O)=O)csc45)c(=O)c3C2)CC1` (single isomer, unassigned) [Compound 239] it was less than 5 µM; in that of `Cc1cc(-c2cc(Cl)ccc2OCCn2c(C)nc3c(c2=O)CC(N2CCc4sccc4C2)CC3)c2scc(C(=O)O)c2n1` (stereo not drawn) [Compound 181], less than 5 µM; in that of `COC1[C@@H]2CC[C@H]1CN(C1CCc3nc(C)n(CCOc4ccc(Cl)cc4-c4cc(C)nc5c(C(=O)O)csc45)c(=O)c3C1)C2` (stereo partly drawn) [Compound 152], less than 5 µM.
Regarding `Cc1cc(-c2cc(Cl)ccc2OCCn2c(C)nc3c(c2=O)CC(NCC2CC(F)(F)C2)CC3)c2scc(C(=O)O)c2n1` (stereo not drawn) [Compound 153], the half-inhibitory concentration (IC50) was 5 to 20 µM.
Still for that read-out and setting: under `Cc1cc(-c2cc(Cl)ccc2OCCn2c(C)nc3c(c2=O)CC(N(C)Cc2cccc(N)n2)CC3)c2scc(C(=O)O)c2n1` (stereo not drawn) [Compound 173] stands more than 20 µM.

The next experiment deals with T1, human eIF4E protein (Homo sapiens, UniProt P06730).
T1 construct: purchased Novus NBP-45314
T1 sequence (P06730 whole entry): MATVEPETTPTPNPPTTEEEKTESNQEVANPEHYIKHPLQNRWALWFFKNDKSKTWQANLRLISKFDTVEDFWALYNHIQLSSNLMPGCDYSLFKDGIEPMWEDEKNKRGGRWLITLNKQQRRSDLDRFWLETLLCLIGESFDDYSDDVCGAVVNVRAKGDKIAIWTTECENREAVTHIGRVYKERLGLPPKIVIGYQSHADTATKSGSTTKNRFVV
As to the kind of experiment: Biochemical competitive binding assay (TR-FRET competition, EDA-m7GDP-ATTO-647N probe). The conditions noted are these: read-out: hEIF4E TR-FRET IC50. The procedure, abridged:
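His-tagged human eIF4E (4 nM) was preincubated with Eu-anti-His antibody (2.5 nM) and added to compound (11-point, 4-fold dilutions) for 15 min. Then 5 nM EDA-m7GDP-ATTO-647N was added for 15 min, in HEPES pH 7.5, 100 mM KCl. The 665/620 TR-FRET ratio was normalized to controls, and IC50 was taken from 4-parameter fits.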
`COC1CCN(C2CCc3nc(C)n(CCOc4ccc(Cl)cc4-c4cc(C)nc5c(C(=O)NCC(F)F)csc45)c(=O)c3C2)CC1` (stereo not drawn) [Compound 142]: the IC50 was 0.1 to 0.5 µM.
Same read-out and setting: in the case of `Cc1cc(-c2cc(Cl)ccc2OCCn2c(C)nc3c(c2=O)CC(N(C)Cc2ccccn2)CC3)c2scc(C(=O)O)c2n1` (stereo not drawn) [Compound 200] it was less than 0.1 µM; in that of `Cc1cc(-c2cc(Cl)ccc2OCCn2c(C)nc3c(c2=O)CC(N2CCC4(C2)CC(F)(F)C4)CC3)c2scc(C(=O)O)c2n1` (stereo not drawn) [Compound 194], less than 0.1 µM.
Take `Cc1cc(-c2cc(Cl)ccc2OCCn2c(C)nc3c(c2=O)CC(N2CCc4ncncc4C2)CC3)c2scc(C(=O)O)c2n1` (stereo not drawn) [Compound 157]: the half-maximal inhibitory concentration (IC50) is less than 0.1 µM.
With `Cc1cc(-c2cc(Cl)ccc2OCCn2c(C)nc3c(c2=O)CC(N2CC4(CCC(F)(F)CC4)C2)CC3)c2scc(C(=O)O)c2n1` (stereo not drawn) [Compound 161], the IC50 is less than 0.1 µM.
On the same count and under the same terms, in the case of `Cc1cc(-c2cc(Cl)ccc2OCCn2c(C)nc3c(c2=O)CC(N(C)Cc2cnccn2)CC3)c2scc(C(=O)O)c2n1` (stereo not drawn) [Compound 199] it was less than 0.1 µM.
Still for that read-out and setting: under `Cc1cc(-c2cc(Cl)ccc2OCCn2c(C)nc3c(c2=O)C[C@H](N2C[C@H]4CCC(F)(F)[C@H]4C2)CC3)c2scc(C(=O)O)c2n1` (single isomer, unassigned) [Compound 166] stands less than 0.1 µM.
The same measure, in the same setting: under `COC1CCN(C2CCc3nc(C)n(CCOc4ccc(Cl)cc4-c4cc(C)nc5c(C(=O)NS(C)(=O)=O)csc45)c(=O)c3C2)CC1` (single isomer, unassigned) [Compound 239] stands less than 0.1 µM; under `Cc1cc(-c2cc(Cl)ccc2OCCn2c(C)nc3c(c2=O)CC(N2CCc4sccc4C2)CC3)c2scc(C(=O)O)c2n1` (stereo not drawn) [Compound 181], less than 0.1 µM.
Regarding `COC1[C@@H]2CC[C@H]1CN(C1CCc3nc(C)n(CCOc4ccc(Cl)cc4-c4cc(C)nc5c(C(=O)O)csc45)c(=O)c3C1)C2` (stereo partly drawn) [Compound 152], the IC50 was less than 0.1 µM.
With `Cc1cc(-c2cc(Cl)ccc2OCCn2c(C)nc3c(c2=O)CC(NCC2CC(F)(F)C2)CC3)c2scc(C(=O)O)c2n1` (stereo not drawn) [Compound 153], the IC50 was less than 0.1 µM.
Consider `Cc1cc(-c2cc(Cl)ccc2OCCn2c(C)nc3c(c2=O)CC(N(C)Cc2cccc(N)n2)CC3)c2scc(C(=O)O)c2n1` (stereo not drawn) [Compound 173], for which the half-inhibitory concentration (IC50) is less than 0.1 µM.
Still for that read-out and setting: under `Cc1nc2c(c(=O)n1CC#Cc1ccc(Cl)cc1-c1ccnc3c(C(=O)NS(C)(=O)=O)csc13)C[C@H](N1CC[C@@H](F)C1)CC2` (single isomer, unassigned) [Compound 348] stands less than 0.1 µM; under `Cc1cc(-c2cc(Cl)ccc2OCCn2c(C)nc3c(c2=O)CC(N2CC(C(F)(F)F)C2)CC3)c2scc(C(=O)NS(C)(=O)=O)c2n1` (single isomer, unassigned) [Compound 321], less than 0.1 µM.
For `Cc1cc(-c2cc(Cl)ccc2OCCn2c(C)nc3c(c2=O)CC(N2CC4COCC4C2)CC3)c2scc(C(=O)O)c2n1` (single isomer, unassigned) [Compound 67], the concentration for half-maximal inhibition (IC50) was less than 0.1 µM.

The next experiment concerns cap-dependent translation in Flp-In-293 reporter cells. As to the kind of experiment: Cellular cap-dependent translation inhibition assay (dual luciferase assay, DLA; Fluc/Rluc ratio, 24 hours). It counts as cell-based. The conditions noted are these: Homo sapiens, Flp-In-293, 24 h, dual luciferase assay, Flp-In-293 reporter cells, 24 hours, Fluc/Rluc ratio; read-out: DLA 205 IC50.
As for `Cc1nc2c(c(=O)n1CC#Cc1ccc(Cl)cc1-c1ccnc3c(C(=O)NS(C)(=O)=O)csc13)C[C@H](N1CC[C@@H](F)C1)CC2` (single isomer, unassigned) [Compound 348], the half-inhibitory concentration (IC50) was less than 1 µM.
As to `Cc1cc(-c2cc(Cl)ccc2OCCn2c(C)nc3c(c2=O)CC(N2CC(C(F)(F)F)C2)CC3)c2scc(C(=O)NS(C)(=O)=O)c2n1` (single isomer, unassigned) [Compound 321], the half-inhibitory concentration (IC50) is less than 1 µM.
Turning to `Cc1cc(-c2cc(Cl)ccc2OCCn2c(C)nc3c(c2=O)CC(N2CC4COCC4C2)CC3)c2scc(C(=O)O)c2n1` (single isomer, unassigned) [Compound 67], the 50% inhibitory concentration (IC50) is less than 1 µM.

As a reminder, the IC50 is the concentration at which inhibition is half-maximal.
